Laboratory results taken from ChEMBL document CHEMBL1133023, “Deoxy sugar analogues of triciribine: correlation of antiviral and antiproliferative activity with intracellular phosphorylation” (J Med Chem, 2000).

What was measured:
Type in all cases: functional, cell-based
[1] = Antiviral activity was tested using an enzyme-linked immunosorbent assay (ELISA) to detect HSV-1 (herpes simplex virus type 1) using BSC-1 cells; settings: Cercopithecidae
[2] = system: CEM-SS; experiment: Tested for visual cytotoxicity on uninfected CEM-SS cells; settings: Homo sapiens
[3] = system: CEM-SS; experiment: Intracellular phosphorylation (100 uM) in uninfected CEM-SS cells was studied after 24 hrs of Incubation time; settings: Homo sapiens
[4] = system: HFF; experiment: Tested for visual cytotoxicity on uninfected HFF cells; settings: Homo sapiens
[5] = system: HFF; experiment: HCMV plaque assay was performed using HFF cells and effect was calculated as a percentage of reduction in number of plaques; settings: Homo sapiens
[6] = system: KB; experiment: Inhibition of KB cell growth was assessed; settings: Homo sapiens
[7] = system: L1210; experiment: Tested in vitro for cytotoxicity against murine L1210 leukemic cells; settings: Mus musculus
[8] = system: CEM-SS; experiment: Intracellular phosphorylation (100 uM) in uninfected CEM-SS cells was studied after 24 hrs of Incubation time; Value ranges from 3-5; settings: Homo sapiens

Row | SMILES | IC50 [1] [µM] | IC50 [6] [µM] | IC50 [2] [µM] | Concentration [3] [µM] | IC50 [4] [µM] | IC50 [5] [µM] | IC50 [7] [µM] | Concentration [8] [µM]
1 | CN1N=C(N)c2cn(C3C[C@@H](O)[C@@H](CO)O3)c3ncnc1c23 (some centres not stated) | > 100 | > 100 | > 100 |  | > 100 | > 100 | > 100 | < 5
2 | C[C@H]1OC(n2cc3c4c(ncnc42)N(C)N=C3N)[C@H](O)[C@@H]1O (some centres not stated) | > 100 | > 100 | > 100 |  | > 100 | > 100 | > 100 | < 5
3 | CN1N=C(N)c2cn([C@H]3C=C[C@@H](CO)O3)c3ncnc1c23 | > 100 | > 100 | > 100 |  | > 100 | > 100 | > 100 | < 5

Now from value to molecule, other results behind:

Row | IC50 [1] [µM] | IC50 [6] [µM] | SMILES | IC50 [2] [µM] | Concentration [3] [µM] | IC50 [4] [µM] | IC50 [5] [µM] | IC50 [7] [µM] | Concentration [8] [µM]
4 | > 100 | > 100 | CN1N=C(N)c2cn([C@H]3CC[C@@H](CO)O3)c3ncnc1c23 | > 100 | 45 | > 100 | > 100 | 25 | 
5 | 6 | 16 | CN1N=C(N)c2cn([C@@H]3O[C@H](CO)C[C@H]3O)c3ncnc1c23 | 100 | 276 | > 100 | > 100 | 2.2 | 
6 | 65 | > 100 | CN1N=C(N)c2cn(C3O[C@H](CO)[C@H]4O[C@H]34)c3ncnc1c23 (some centres not stated) | > 100 | < 5 | > 100 | > 100 |  | 
7 | 20 | 10 | CN1N=C(N)c2cn([C@@H]3O[C@H](COP(=O)(O)O)[C@@H](O)[C@H]3O)c3ncnc1c23 [TRICIRIBINE PHOSPHATE] | > 1 |  | 19 | 0.8 | 0.025 | 
